± gives the standard deviation of the averaged measurements.
Tests used:
Test in all cases: level (log10 ratio to DMSO vehicle control); higher = higher biomarker level / cell amount than vehicle control
Conditions in all cases: in DMSO
[1] = compound: O=S(=O)(O)C(F)(F)C(F)(F)C(F)(F)C(F)(F)F [Perfluorobutanesulfonic acid]
Protocol: (§1)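 BioMAP Diversity Plus panel of 12 human primary cell co-culture systems (3C, 4H, LPS, SAg, BT, BF4T, BE3C, CASM3C, HDF3CGF, KF3CT, MyoF, Mphg). Compounds were added 1 h before stimulation and left for 24 h (MyoF 48 h; BT 72 h for soluble read-outs or 6 d for IgG). Biomarkers were read by ELISA, cytotoxicity by SRB, PBMC viability and proliferation by Alamar Blue. Each well value was divided by the mean of 8 DMSO control wells on the same plate and log10 transformed; duplicate blinded samples were tested at 4 concentrations.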

[2] = compound: O=P(O)(O)CCC(F)(F)C(F)(F)C(F)(F)C(F)(F)C(F)(F)C(F)(F)C(F)(F)C(F)(F)F [((Perfluorooctyl)ethyl)phosphonic acid]
Protocol: as §1

[3] = compound: FC(F)(F)C(F)(F)C(F)(F)C(F)(F)C(F)(F)C(F)(F)C(F)(F)CCI [1-Iodo-1H,1H,2H,2H-perfluorononane]
Protocol: as §1

[4] = compound: CC(C)(C)C(=O)CC(=O)C(F)(F)C(F)(F)C(F)(F)F [(Heptafluorobutanoyl)pivaloylmethane]
Protocol: as §1

[5] = compound: CCCCCCCCC(F)(F)C(F)(F)C(F)(F)C(F)(F)C(F)(F)C(F)(F)F [1-(Perfluorohexyl)octane]
Protocol: as §1

[6] = compound: N=C(N)C(F)(F)C(F)(F)C(F)(F)C(F)(F)C(F)(F)C(F)(F)C(F)(F)F [Perfluorooctanamidine]
Protocol: as §1

[7] = compound: NC(=O)C(F)(F)C(F)(F)C(F)(F)C(F)(F)C(F)(F)C(F)(F)C(F)(F)F [Perfluorooctanamide]
Protocol: as §1

| Test System | level (log10) ([1]; 6700 nM) | level (log10) ([1]; 20000 nM) | level (log10) ([1]; 60000 nM) | level (log10) ([2]; 6700 nM) | level (log10) ([2]; 20000 nM) | level (log10) ([2]; 60000 nM) | level (log10) ([3]; 6700 nM) | level (log10) ([3]; 20000 nM) | level (log10) ([4]; 6700 nM) | level (log10) ([4]; 20000 nM) | level (log10) ([4]; 60000 nM) | level (log10) ([5]; 6700 nM) | level (log10) ([5]; 20000 nM) | level (log10) ([6]; 6700 nM) | level (log10) ([6]; 20000 nM) | level (log10) ([6]; 60000 nM) | level (log10) ([7]; 6700 nM) | level (log10) ([7]; 20000 nM) | level (log10) ([7]; 60000 nM) |
| --- | --- | --- | --- | --- | --- | --- | --- | --- | --- | --- | --- | --- | --- | --- | --- | --- | --- | --- | --- |
| BE3C:MMP-1 | 0.0055 ± 0.028 | -0.011 ± 0.0057 | 0.019 ± 0.013 | 0.0705 ± 0.011 | 0.111 ± 0.018 | 0.125 ± 0.061 | 0.011 ± 0.0071 | 0.059 ± 0.031 | -0.0025 ± 0.0035 | -0.019 ± 0.013 | 0.0095 ± 0.033 | 0.0155 ± 0.018 | 0.0395 ± 0.053 | 0.0525 ± 0.03 | 0.057 ± 0.044 | 0.262 | 0.0075 ± 0.0078 | 0.014 ± 0.0071 | 0.022 ± 0.018 |
| BE3C:MMP-9 | -0.0125 ± 0.016 | -0.0205 ± 0.0035 | -0.0315 ± 0.0092 | -0.0155 ± 0.026 | -0.006 ± 0.044 | 0.014 ± 0.016 | -0.0045 ± 0.013 | -0.0045 ± 0.026 | -0.0145 ± 0.018 | 0.004 ± 0.0014 | -0.032 ± 0.04 | -0.0065 ± 0.0021 | -0.005 ± 0.0057 | -0.0115 ± 0.005 | -0.015 ± 0.023 | -0.001 | -0.0085 ± 0.0064 | 0.002 ± 0.0028 | 0.0015 ± 0.013 |
| BE3C:PAI-I | -0.0015 ± 0.0035 | -0.006 ± 0.013 | 0.008 ± 0.013 | 0.015 ± 0.0014 | -0.0115 ± 0.011 | -0.032 ± 0.0042 | 0.016 ± 0.0071 | -0.01 ± 0.0099 | -0.028 ± 0.068 | -0.009 ± 0.083 | -0.0145 ± 0.1 | -0.025 ± 0.0057 | -0.024 | 0.0015 ± 0.00071 | -0.006 ± 0.0099 | -0.021 | -0.01 ± 0.016 | 0.016 ± 0.0085 | 0.022 ± 0.0057 |
| BE3C:SRB | 0.001 | -0.004 ± 0.0028 | -0.003 ± 0.0014 | -0.004 | -0.011 ± 0.0085 | 0.0015 ± 0.015 | -0.0035 ± 0.0021 | 0.0005 ± 0.00071 | -0.0035 ± 0.0035 | -0.0035 ± 0.00071 | -0.0075 ± 0.019 | -0.0005 ± 0.0021 | 0.002 ± 0.0028 | -0.0075 ± 0.005 | -0.001 ± 0.016 | 0.009 | -0.005 ± 0.0057 | -0.003 ± 0.0057 | 0.0005 ± 0.0035 |
| BE3C:tPA | 0.0155 ± 0.022 | -0.0135 ± 0.0078 | 0 ± 0.025 | 0.123 ± 0.005 | 0.191 ± 0.0014 | 0.202 ± 0.032 | 0.004 ± 0.035 | 0.011 ± 0.035 | -0.026 ± 0.0071 | -0.0035 ± 0.025 | -0.0275 ± 0.032 | -0.0015 ± 0.03 | 0 ± 0.033 | 0 ± 0.0028 | -0.006 ± 0.0014 | 0.019 | 0.008 ± 0.018 | 0.0385 ± 0.011 | 0.049 ± 0.05 |
| BE3C:uPA | -0.0035 ± 0.0021 | -0.007 ± 0.0042 | -0.005 ± 0.0099 | 0.014 ± 0.0014 | 0.022 ± 0.0014 | 0.023 ± 0.0014 | 0.003 ± 0.033 | -0.0125 ± 0.015 | 0.0025 ± 0.018 | -0.0035 ± 0.023 | 0.002 ± 0.03 | -0.0145 ± 0.012 | -0.0145 ± 0.0092 | -0.008 ± 0.011 | -0.0095 ± 0.0078 | 0.004 | 0.0025 ± 0.0035 | 0.0005 ± 0.005 | 0.0135 ± 0.0021 |
| CASM3C:CCL2/MCP-1 | -0.0085 ± 0.0092 | -0.0125 ± 0.035 | -0.0045 ± 0.021 | -0.007 ± 0.0071 | -0.0085 ± 0.013 | 0.012 ± 0.058 | 0.003 ± 0.0099 | 0.02 ± 0.018 | -0.008 ± 0.017 | -0.0025 ± 0.021 | -0.0075 ± 0.0092 | -0.0065 ± 0.018 | 0.001 ± 0.0042 | 0.008 ± 0.024 | 0.011 ± 0.034 | 0.085 | -0.013 ± 0.03 | -0.013 ± 0.014 | -0.014 ± 0.0099 |
| CASM3C:CD87/uPAR | -0.0275 ± 0.03 | -0.047 ± 0.045 | -0.0575 ± 0.0092 | -0.022 ± 0.013 | -0.0345 ± 0.015 | -0.041 ± 0.014 | -0.0105 ± 0.028 | -0.013 ± 0.028 | 0.003 ± 0.02 | -0.0235 ± 0.0064 | -0.014 ± 0.023 | -0.0175 ± 0.0078 | -0.005 ± 0.011 | -0.011 ± 0.016 | -0.02 ± 0.037 | -0.034 | -0.009 ± 0.0014 | -0.001 ± 0.024 | 0.0045 ± 0.0092 |

From the supplement of paper PMC10331698
